Reference: patent publication US20230097157A1, “Bicyclic Pyridin-2-one and pyrimidin-4-one Derivatives Useful As a Factor XIa Inhibitors” (Janssen Pharmaceutica NV, priority 2021, published 2023)
Like-named read-outs stand apart in the source and are kept apart here.

Key:
[1] = molecular target: human plasma kallikrein (Homo sapiens, UniProt P03952); experiment: Kallikrein inhibition assay (FLINT) utilizing a quenched AMC peptide substrate Z-Gly-Pro-Arg-AMC; assay type: biochemical; conditions: kinetic (KIN) reads, read-out: Kallikrein KIN Inh IC50
human plasma kallikrein, sequence (P03952 391-638 limits assumed): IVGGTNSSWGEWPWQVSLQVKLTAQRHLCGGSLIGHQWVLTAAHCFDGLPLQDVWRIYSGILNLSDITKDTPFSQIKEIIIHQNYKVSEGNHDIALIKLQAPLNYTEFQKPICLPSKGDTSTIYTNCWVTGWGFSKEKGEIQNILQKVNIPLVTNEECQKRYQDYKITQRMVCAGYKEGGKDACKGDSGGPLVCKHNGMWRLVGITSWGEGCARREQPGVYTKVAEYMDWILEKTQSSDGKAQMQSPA
human plasma kallikrein, sequence (P03952 20-390 partner limits assumed): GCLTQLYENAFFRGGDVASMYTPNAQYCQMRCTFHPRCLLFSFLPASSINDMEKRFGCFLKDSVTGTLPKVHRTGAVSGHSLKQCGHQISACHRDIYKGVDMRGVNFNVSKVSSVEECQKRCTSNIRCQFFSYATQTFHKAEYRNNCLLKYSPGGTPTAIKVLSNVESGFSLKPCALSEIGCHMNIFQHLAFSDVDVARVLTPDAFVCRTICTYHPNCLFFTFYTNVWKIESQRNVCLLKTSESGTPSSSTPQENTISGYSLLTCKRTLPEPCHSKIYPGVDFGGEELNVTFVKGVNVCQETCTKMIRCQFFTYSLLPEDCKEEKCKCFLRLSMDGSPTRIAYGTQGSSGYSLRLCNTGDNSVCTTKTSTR
Excerpt: Biological Example 2: Kallikrein Inhibition Assay Utilizing a Quenched AMC Peptide Substrate A fluorescence intensity (FLINT) based assay was used to monitor inhibition of human plasma kallikrein. The peptide substrate, Z-Gly-Pro-Arg-AMC (Purchased from Bachem; Catalog #I-1150) was chosen based on its relatively low KM for kallikrein which enables running the assay at lower substrate concentrations to control background fluorescence.
The Kallikrein FLINT assay was used with the following Z-Gly-Pro-Arg-AMC assay buffer: 50 mM Tris, pH 7.5, 100 mM NaCl, 5 mM CaCl2, 0.1 mg/mL BSA, 0.03% CHAPS. Assay buffer was prepared by mixing all ingredients fresh. 2× Z-Gly-Pro-Arg-AMC peptide substrate was prepared by diluting 10 mM stock into 1× assay buffer for a 100 μM working concentration (50 μM final concentration). The 2× kallikrein stock solution was prepared by diluting 14.76 μM stock in 1× assay buffer for a 4 nM working stock solution (2 nM final concentration).
Test compound(s) were run in an 11-point, 3-fold serial dilution with a final top compound concentration of 1 μM. Final DMSO in assay was 2%. Plasma kallikrein was pre-incubated for 30-minute with compound and then 50 μM substrate was added to initiate the reaction. The assay was run with kinetic (KIN) reads at 5 min intervals over 30 minutes. The time course was linear using 2 nM kallikrein greater than 30 minutes. More specifically, the assay was run as follows: • 100 nL of 0.1 mM test compound was dispensed into black 384-well non-binding Greiner BioOne 784900 plate for 1 μM final concentration; • 5 μL of 1× assay buffer was dispensed to columns 24 (low control) and 5 μL 2× human kallikrein enzyme solution was dispensed to columns 1-23 (column 23 high control); • the plate was centrifuged with a “cover” plate at 500 rpm for 1 min • the plate was pre-incubated for 30 minutes at room temperature with plate covered; • 5 μL of 2× Z-Gly-Pro-Arg-AMC peptide substrate was dispensed into the entire plate, columns 1-24; • the plate was centrifuged with a “cover” plate at 500 rpm for 1 min; • the plate was read monitoring fluorescence intensity on the BMG PHERAStar at room temperature, using fluorescence module 340 nm/440 nm.
(§1) Percent inhibition (IC50) curves were generated per compound tested, and data was analyzed using a 4-parameter logistic fit using GeneData Screener. The relative fluorescence unit (RFU) values were normalized to percent inhibition using the following equation:
% inhibition=((HC−LC)−(compound−LC)/(HC−LC))*100 where LC—low control=mean signal of […] or 100% inhibition of human kallikrein enzyme; HC—high control=mean signal of […]+Z-Gly-Pro-Arg-AMC peptide substrate with DMSO only.
(§2) An 11-point dose response curve for the test compound(s) was generated using GENDATA to determine IC50 value based on the following equation:
(§3) Y=Bottom+(Top−Bottom)/(1+10^((log IC50−X)*HillSlope)) where Y is the % inhibition in the presence of X inhibitor concentration, Top=high control=mean signal of human kallikrein enzyme+Z-Gly-Pro-Arg-AMC peptide substrate with DMSO only; Bottom=low control−mean signal of no human kallikrein enzyme or 100% inhibition of human kallikrein enzyme; HillSlope−Hill coefficient; and IC50=concentration of compound with 50% inhibition in relation to top/high control.

[2] = molecular target: Factor XIa (Homo sapiens, UniProt P03951); experiment: Factor XIa inhibition assay (FLINT) utilizing a fluorophore-quencher pair peptide substrate 5Fam-[…]-K5Tamra; assay type: biochemical; conditions: kinetic (KIN) reads, read-out: FXIa KIN Inh IC50
Factor XIa, sequence (P03951 388-625 limits assumed): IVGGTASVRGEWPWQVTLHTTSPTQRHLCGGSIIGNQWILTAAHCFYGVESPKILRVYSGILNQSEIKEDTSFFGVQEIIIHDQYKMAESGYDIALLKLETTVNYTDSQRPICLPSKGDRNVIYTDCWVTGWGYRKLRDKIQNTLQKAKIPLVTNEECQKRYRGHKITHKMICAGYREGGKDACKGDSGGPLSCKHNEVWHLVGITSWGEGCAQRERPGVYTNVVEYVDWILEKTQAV
Factor XIa, sequence (P03951 19-387 partner limits assumed): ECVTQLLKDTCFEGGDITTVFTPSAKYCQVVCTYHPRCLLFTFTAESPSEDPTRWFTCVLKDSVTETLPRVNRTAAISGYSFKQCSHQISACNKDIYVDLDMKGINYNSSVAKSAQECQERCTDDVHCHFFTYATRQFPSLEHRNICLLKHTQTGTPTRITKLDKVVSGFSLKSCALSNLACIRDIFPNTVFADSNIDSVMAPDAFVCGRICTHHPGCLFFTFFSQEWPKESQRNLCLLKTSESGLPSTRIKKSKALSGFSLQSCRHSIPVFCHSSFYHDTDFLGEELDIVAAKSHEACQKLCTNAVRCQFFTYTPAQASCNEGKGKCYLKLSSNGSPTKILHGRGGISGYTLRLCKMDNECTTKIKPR
Excerpt: Biological Example 1: Factor XIa Inhibition Assay Utilizing a Fluorophore-Quencher Pair Peptide Substrate A fluorescence intensity (FLINT) based assay was used to monitor inhibition of Factor XIa. The peptide substrate, 5Fam-[…]-K5Tamra (purchased from New England Peptide) was chosen based on the FXI sequence. Conversion of zymogen FXI to its activated form, FXIa, occurs by proteolytic cleavage by […] at two sites, Arg146 and Arg180. The custom peptide used in this assay was based on the Arg146 cleavage site of FXI. The peptide substrate was designed with a fluorophore-quencher pair, where the fluorescence is quenched until FXIa cleaves the 8-mer peptide after the Arg residue.
The Factor XIa FLINT assay was used with the following 5Fam-[…]-K5Tamra assay buffer: 50 mM Tris, pH 7.5, 100 mM NaCl, 5 mM CaCl2, 0.1 mg/mL BSA, 0.03% CHAPS. Assay buffer was prepared by mixing all ingredients fresh. 5Fam-[…]-K5Tamra peptide substrate was first prepared at 10 mM in 100% DMSO, then diluted to 3 mM in 100% DMSO. Assay buffer was then added directly to the 3 mM stock of substrate to prepare the 30 μM 2× working concentration (15 μM final concentration). The 2× Factor XIa stock solution was prepared by diluting 6.562 μM stock in 1× assay buffer for a […].
Test compound(s) were run in an 11-point, 3-fold serial dilution with a final top compound concentration of 100 nM. Final DMSO in assay was 2%. FXIa was preincubated with compound for 30-minutes and then substrate was added to initiate the reaction. The assay was run with kinetic (KIN) reads at 5 min intervals over 30 minutes. […] More specifically, the assay was run as follows: • 100 nL of 0.01 mM test compound was dispensed into black 384-well non-binding Greiner BioOne 784900 plate for 0.1 μM final concentration; • 5 μL of 1× assay buffer was dispensed to column 24 (low control) and 5 μL 2× Factor XIa solution was dispensed to columns 1-23 (column 23 high control); • the plate was centrifuged with a “cover” plate at 500 rpm for 1 min • the plate was pre-incubated for 30 minutes at room temperature with plate covered; • 5 μL of 2×5Fam-[…]-K5Tamra peptide substrate was dispensed into the entire plate, columns 1-24; • the plate was centrifuged with a “cover” plate at 500 rpm for 1 min; • the plate was read monitoring fluorescence intensity on the BMG PHERAStar at room temperature, using fluorescence module 485 nm/520 nm.
as §1
% inhibition=((HC−LC)−(compound−LC)/(HC−LC))*100 where LC−low control=mean signal of no Factor XIa or 100% inhibition of Factor XIa; HC−high control=mean signal of Factor XIa+5Fam-[…]-K5Tamra peptide substrate with DMSO only.
as §2
as §3, with “Factor XIa+5Fam-[…]-K5Tamra” for “human kallikrein enzyme+Z-Gly-Pro-Arg-AMC”, “Factor XIa” for “human kallikrein enzyme”, “Factor XIa;” for “human kallikrein enzyme;”

| Compound | IC50 ([1]; values in nM) [nM] | IC50 ([2]; values in nM) [nM] | IC50 ([1]; unit μM) [nM] | IC50 ([2]; unit μM) [nM] |
| --- | --- | --- | --- | --- |
| C[C@@H]1C[C@@H](c2ncc(-c3ccc4c(=O)cc[nH]c4c3)[nH]2)n2c1nc(-c1c(-n3cnnn3)ccc(Cl)c1F)cc2=O (relative stereo) [Example 101, 7-(2-((6S,8R)-2-(3-Chloro-2-fluoro-6-(1H-tetrazol-1-yl)phenyl)-8-methyl-4-oxo-4,6,7,8-tetrahydropyrrolo[1,2-a]pyrimidin-6-yl)-1H-imidazol-5-yl)quinolin-4(1H)-one] | – | 321 | 1300 | – |
| COc1nccc(-c2cnc([C@H]3C[C@H](C)c4nc(-c5c(-n6cnnn6)ccc(Cl)c5F)cc(=O)n43)[nH]2)n1 (relative stereo) [Example 104, (6*R,8*S)-2-(3-Chloro-2-fluoro-6-(1H-tetrazol-1-yl)phenyl)-6-(5-(2-methoxypyrimidin-4-yl)-1H-imidazol-2-yl)-8-methyl-7,8-dihydropyrrolo[1,2-a]pyrimidin-4(6H)-one] | 115 | 113 | – | – |
| C[C@@H]1C[C@H](c2ncc(-c3cnns3)[nH]2)n2c1nc(-c1c(-n3cnnn3)ccc(Cl)c1F)cc2=O (relative stereo) [Example 105, (6*R,8*R)-6-(5-(1,2,3-Thiadiazol-5-yl)-1H-imidazol-2-yl)-2-(3-chloro-2-fluoro-6-(1H-tetrazol-1-yl)phenyl)-8-methyl-7,8-dihydropyrrolo[1,2-a]pyrimidin-4(6H)-one] | – | – | > 10000 | > 10000 |
| C[C@H]1C[C@H](c2ncc(-c3cnns3)[nH]2)n2c1nc(-c1c(-n3cnnn3)ccc(Cl)c1F)cc2=O (relative stereo) [Example 106, (6*R,8*S)-6-(5-(1,2,3-Thiadiazol-5-yl)-1H-imidazol-2-yl)-2-(3-chloro-2-fluoro-6-(1H-tetrazol-1-yl)phenyl)-8-methyl-7,8-dihydropyrrolo[1,2-a]pyrimidin-4(6H)-one] | – | 933 | 6400 | – |
| Cc1nc(N)c(F)cc1-c1cnc([C@H]2C[C@H](C)c3nc(-c4c(-n5cnnn5)ccc(Cl)c4F)cc(=O)n32)[nH]1 (relative stereo) [Example 129, (6*R,8*S)-6-(5-(6-Amino-5-fluoro-2-methylpyridin-3-yl)-1H-imidazol-2-yl)-2-(3-chloro-2-fluoro-6-(1H-tetrazol-1-yl)phenyl)-8-methyl-7,8-dihydropyrrolo[1,2-a]pyrimidin-4(6H)-one] | – | 168 | 1600 | – |
| C[C@@H]1C[C@H](c2ncc(-c3cnnn3C)[nH]2)n2c1nc(-c1c(-n3cnnn3)ccc(Cl)c1F)cc2=O (relative stereo) [Example 135, (6*R,8*R)-2-(3-Chloro-2-fluoro-6-(1H-tetrazol-1-yl)phenyl)-8-methyl-6-(5-(1-methyl-1H-1,2,3-triazol-5-yl)-1H-imidazol-2-yl)-7,8-dihydropyrrolo[1,2-a]pyrimidin-4(6H)-one] | – | – | > 10000 | 2700 |

Continued by falling IC50 ([2]; values in nM), values first:

| IC50 ([1]; values in nM) [nM] | IC50 ([2]; values in nM) [nM] | IC50 ([1]; unit μM) [nM] | IC50 ([2]; unit μM) [nM] | Compound |
| --- | --- | --- | --- | --- |
| 151 | 63.4 | – | – | COc1nccc(-c2cnc([C@@H]3C[C@H](C)c4nc(-c5c(-n6cnnn6)ccc(Cl)c5F)cc(=O)n43)[nH]2)n1 (relative stereo) [Example 103, (6S,8S)-2-(3-chloro-2-fluoro-6-(1H-tetrazol-1-yl)phenyl)-6-(5-(2-methoxypyrimidin-4-yl)-1H-imidazol-2-yl)-8-methyl-7,8-dihydropyrrolo[1,2-a]pyrimidin-4(6H)-one] |
| 168 | 39 | – | – | C[C@H]1C[C@@H](c2ncc(-c3ncc(N)nc3C3CC3)[nH]2)n2c1nc(-c1c(-n3cnnn3)ccc(Cl)c1F)cc2=O (relative stereo) [Example 91, (6*S,8*S)-6-(5-(5-Amino-3-cyclopropylpyrazin-2-yl)-1H-imidazol-2-yl)-2-(3-chloro-2-fluoro-6-(1H-tetrazol-1-yl)phenyl)-8-methyl-7,8-dihydropyrrolo[1,2-a]pyrimidin-4(6H)-one] |
| 298 | 21.4 | – | – | C[C@H]1C[C@H](c2ncc(-c3ncc(N)nc3C3CC3)[nH]2)n2c1nc(-c1c(-n3cnnn3)ccc(Cl)c1F)cc2=O (relative stereo) [Example 90, (6*R,8*S)-6-(5-(5-Amino-3-cyclopropylpyrazin-2-yl)-1H-imidazol-2-yl)-2-(3-chloro-2-fluoro-6-(1H-tetrazol-1-yl)phenyl)-8-methyl-7,8-dihydropyrrolo[1,2-a]pyrimidin-4(6H)-one] |
| 446 | 18.2 | – | – | C[C@H]1C[C@@H](c2ncc(-c3ccc4c(=O)cc[nH]c4c3)[nH]2)n2c1nc(-c1c(-n3cnnn3)ccc(Cl)c1F)cc2=O (relative stereo) [Example 102, 7-(2-((6*S,8*S)-2-(3-Chloro-2-fluoro-6-(1H-tetrazol-1-yl)phenyl)-8-methyl-4-oxo-4,6,7,8-tetrahydropyrrolo[1,2-a]pyrimidin-6-yl)-1H-imidazol-5-yl)quinolin-4(1H)-one] |
| 14.5 | 2.6 | – | – | C[C@H]1C[C@@H](c2ncc(-c3ccnc(N)c3F)[nH]2)n2c1nc(-c1c(-n3cnnn3)ccc(Cl)c1F)cc2=O (relative stereo) [Example 88, (6*S,8*S)-6-(5-(2-Amino-3-fluoropyridin-4-yl)-1H-imidazol-2-yl)-2-(3-chloro-2-fluoro-6-(1H-tetrazol-1-yl)phenyl)-8-methyl-7,8-dihydropyrrolo[1,2-a]pyrimidin-4(6H)-one] |
